molecular target: T1, FLAG-tagged PRMT1 (Rattus norvegicus, UniProt Q63009); experiment: Fluorescence-based in vitro PRMT assay (F-PRMT assay), PRMT1; type: biochemical; conditions: 100 μM compound
T1 construct: Full-length FLAG-tagged PRMT protein; made in house; host or cells: Sf9 insect cells (baculovirus)
T1 sequence (Q63009 whole entry): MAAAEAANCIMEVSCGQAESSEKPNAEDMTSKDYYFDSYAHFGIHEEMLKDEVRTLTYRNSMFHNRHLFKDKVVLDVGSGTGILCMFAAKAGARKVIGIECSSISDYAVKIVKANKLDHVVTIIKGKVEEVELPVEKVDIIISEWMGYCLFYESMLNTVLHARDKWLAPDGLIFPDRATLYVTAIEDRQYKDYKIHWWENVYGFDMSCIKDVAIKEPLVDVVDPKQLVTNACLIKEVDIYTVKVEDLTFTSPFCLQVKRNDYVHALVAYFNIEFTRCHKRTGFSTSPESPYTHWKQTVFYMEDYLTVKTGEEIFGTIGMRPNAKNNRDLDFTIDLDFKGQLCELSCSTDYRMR

Row | SMILES | effect on PRMT1 activity (in words)
1 | CN(C)CCCN/C=C1\C(=O)NC(=O)c2ccccc21 [TR-018, (Z)-4-({[3-(Dimethylamino)propyl]amino}methylene)isoquinoline-1,3(2H,4H)-dione] | activated PRMT1 in a significant manner, albeit to a considerably lesser extent than TR-07
2 | CC(C)Cc1ccc(N/C=C2\C(=O)NC(=O)c3ccccc32)cc1 [ICTR-076] | no effect

same assay, conditions: 100 μM compound, increase over solvent-treated activity; read-out: enhancement (increase) of PRMT1 enzymatic activity

Row | SMILES | activation at 100 µM [%]
3 | CN(C)Cc1ccc(N/C=C2\C(=O)NC(=O)c3ccccc32)cc1 [TR-021] | ≥ 60

molecular target: T2, FLAG-tagged PRMT4 (Mus musculus, UniProt Q9WVG6); experiment: Fluorescence-based in vitro PRMT assay (F-PRMT assay), PRMT4; type: biochemical; conditions: Table S2; 100 µM compound, vs solvent control = 100%, n=3; racemates used
T2 construct: Full-length FLAG-tagged PRMT protein; made in house; host or cells: Sf9 insect cells (baculovirus)
T2 sequence (Q9WVG6 1-608): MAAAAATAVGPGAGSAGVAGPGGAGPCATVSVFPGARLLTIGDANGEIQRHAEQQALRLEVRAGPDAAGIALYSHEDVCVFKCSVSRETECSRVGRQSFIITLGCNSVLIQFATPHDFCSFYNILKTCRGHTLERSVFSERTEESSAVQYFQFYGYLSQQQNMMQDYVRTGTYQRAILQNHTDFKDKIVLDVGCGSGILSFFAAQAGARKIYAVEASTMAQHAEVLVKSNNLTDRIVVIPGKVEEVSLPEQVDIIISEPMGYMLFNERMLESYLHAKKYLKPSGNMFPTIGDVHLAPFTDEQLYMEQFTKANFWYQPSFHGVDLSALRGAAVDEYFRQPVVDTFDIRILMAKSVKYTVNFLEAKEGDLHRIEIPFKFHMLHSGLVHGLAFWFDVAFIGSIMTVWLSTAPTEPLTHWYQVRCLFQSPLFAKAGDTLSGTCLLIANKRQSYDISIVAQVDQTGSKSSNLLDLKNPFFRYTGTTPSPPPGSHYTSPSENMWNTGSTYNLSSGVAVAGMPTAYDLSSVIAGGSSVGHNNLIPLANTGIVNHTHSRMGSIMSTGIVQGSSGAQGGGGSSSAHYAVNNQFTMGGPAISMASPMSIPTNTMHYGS
Text: To evaluate the effects of the selected candidate molecules on the catalytic activity of type I enzymes, we employed a quantitative fluorescence-based in vitro PRMT activity (F-PRMT) assay using recombinant FLAG-tagged PRMT proteins expressed and affinity-purified from baculovirus-infected Sf9 cells (SI Figure S1, SI Figure S2A).
Human cell lines (PaTu8988T, PANC-1) were obtained from ATCC (American Type Culture Collection) and cultured in DMEM supplemented with 10% fetal calf serum (FCS, Gibco/BRL), 1% penicillin/streptomycin at 37 °C and 5% CO2. […] For PRMT1 inhibition, cells were treated with type I PRMT inhibitor MS023 hydrochloride (Biomol). For induction of genotoxic stress, cells were treated with gemcitabine (LC Laboratories). […] The following plasmids were used: pFASTBAC-FLAG-rat PRMT1, pFASTBAC-FLAG-mouse PRMT4, and pGEX-GAR. The complete ORFs of human PRMT3 and PRMT6 were inserted into the pFASTBAC HT-3xFLAG B vector via BamHI/HindIII and BamHI/XhoI sites, respectively.
For PRMT protein expression in insect cells, recombinant baculovirus (bacmid) was generated using the Bac-to-Bac baculovirus system (Invitrogen). Sf9 cells were transfected with bacmid DNA using X-tremeGENE HP DNA transfection reagent (Sigma-Aldrich) according to the manufacturer's instructions. After 3–5 days, supernatants were collected, filtered, and used to infect Sf9 cells to amplify the virus. After 2 rounds of virus amplification and estimation of the final P3 virus titer, the P3 virus (2–5 μL/10^6 cells) was applied for large-scale infection of 200 × 10^6 Sf9 cells in suspension culture at a density of 1 × 10^6 cells/mL. Cells were harvested 5–6 days post-infection by centrifugation at 500 g for 5 min at room temperature. Protein purification from baculovirus-infected Sf9 cells was performed as previously described. , Cells were lysed in BC buffer (20 mM HEPES pH 7.9, 250 mM NaCl, 10% (v/v) glycerin, 0.4 mM EDTA, 1 mM DTT) containing a protease inhibitor cocktail (Roche) by 3 freeze-thaw cycles. After centrifugation at 11,000 rpm (Sorval SS34 rotor) and 4 °C for 1 h, the supernatant (whole cell protein extract) was incubated with anti-FLAG M2 Affinity Gel (Cytiva) at 4 °C and under agitation for 4 h. Subsequently, beads were washed in BC buffer containing various NaCl concentrations (once in BC with 1 M NaCl, twice in BC with 500 mM NaCl, twice in BC with 250 mM NaCl and twice in BC with 100 mM NaCl). FLAG-tagged proteins were either maintained bead-bound as a 50% (v/v) slurry in BC buffer with 100 mM NaCl and stored at −80 °C or were eluted in the appropriate elution buffer (depending on the subsequent assay) containing 0.25 mg/mL 3xFLAG peptides (Sigma-Aldrich) at 4 °C for 30–45 min. To remove the FLAG-peptides from the eluate, dialysis was performed in elution buffer containing 10% (v/v) glycerol at 4 °C for 4–6 h using Slide-A-Lyzer Dialysis Devices (Thermo Fisher Scientific) according to the manufacturer’s recommendations.
In the first step, the fluorogenic substrate Nα-Benzoyl-L-arginine-7-amido-4-methylcoumarin (Bz-Arg-AMC, Sigma-Aldrich) undergoes methylation by PRMTs upon the addition of the cofactor SAM. In the second reaction step, trypsin cleaves the nonmethylated substrate, leading to the generation of the 7-amino-4-methylcoumarin product, which can be quantified by subsequent fluorescence measurement (excitation: 355 nm, emission: 460 nm). The first reaction was conducted with bead-bound PRMTs at a total volume of 100 μL. Each condition was performed as a technical triplicate to determine the mean and the standard deviation. […] For the negative controls, SAM was substituted with assay buffer. The incubation was continued at 37 °C and under agitation (1,000 rpm) for a duration of 2 h.

Row | SMILES | Experimental result (PRMT4)
4 | CC[C@H](NC(=O)c1cccc(Cn2cccn2)c1)c1nc(C)c[nH]1 (racemic) [Compound K001FT009] | n.e. (did not significantly affect the catalytic activity of the intended PRMT (less than ±6% change or not significant p-value), are marked with n.e. (no effect))
5 | Cc1nc([C@@H](O)Cc2ccccc2)n(CCc2cnc[nH]2)n1 (racemic) [Compound K001FT007] | n.e. (did not significantly affect the catalytic activity of the intended PRMT (less than ±6% change or not significant p-value), are marked with n.e. (no effect))
6 | COc1cccc(CNC(=O)NCc2nc3ccccc3s2)c1 [Compound K001FT008] | n.e. (did not significantly affect the catalytic activity of the intended PRMT (less than ±6% change or not significant p-value), are marked with n.e. (no effect))
7 | CNC(=O)COc1ccc(NC(=O)[C@@H]2NC[C@@H]3C[C@@H]32)cc1 (racemic) [Compound K400JK006] | n.e. (did not significantly affect the catalytic activity of the intended PRMT (less than ±6% change or not significant p-value), are marked with n.e. (no effect))
8 | OCCNC[C@@H](O)COc1ccccc1 (racemic) [Compound K001JS001] | n.e. (did not significantly affect the catalytic activity of the intended PRMT (less than ±6% change or not significant p-value), are marked with n.e. (no effect))
9 | NCCCNCc1sc2ccccc2c1Cl [Compound K001FT010] | n.e. (did not significantly affect the catalytic activity of the intended PRMT (less than ±6% change or not significant p-value), are marked with n.e. (no effect))
10 | O[C@H](CNCc1ccco1)COc1ccc2ccccc2c1 (racemic) [Compound K001JS002] | n.e. (did not significantly affect the catalytic activity of the intended PRMT (less than ±6% change or not significant p-value), are marked with n.e. (no effect))
11 | CNCCCc1ncc(-c2ccccc2Br)[nH]1 [Compound K001FT002] | n.e. (did not significantly affect the catalytic activity of the intended PRMT (less than ±6% change or not significant p-value), are marked with n.e. (no effect))
12 | N=C(N)NCCCc1ccccc1Br [Compound K001FT004] | n.e. (did not significantly affect the catalytic activity of the intended PRMT (less than ±6% change or not significant p-value), are marked with n.e. (no effect))
13 | Cc1ccc([N+](=O)[O-])c(OCCC(=O)Nc2ccc(O)cc2C)c1 [Compound K001JS012] | n.e. (did not significantly affect the catalytic activity of the intended PRMT (less than ±6% change or not significant p-value), are marked with n.e. (no effect))
14 | C#CCNCC(=O)Nc1ccc([C@@H]2C[C@H]2N)cc1 (racemic) [Compound K400JK009] | n.e. (did not significantly affect the catalytic activity of the intended PRMT (less than ±6% change or not significant p-value), are marked with n.e. (no effect))
15 | COC(=O)COc1ccc(NC(=O)C23CC(CN2)C3)cc1 [Compound K400JK003] | n.e. (did not significantly affect the catalytic activity of the intended PRMT (less than ±6% change or not significant p-value), are marked with n.e. (no effect))
16 | CS(=O)(=O)c1ccc(C(=O)NCc2nc3cc(F)ccc3[nH]2)cc1 [Compound K001JS011] | n.e. (did not significantly affect the catalytic activity of the intended PRMT (less than ±6% change or not significant p-value), are marked with n.e. (no effect))
17 | CNCCCNCc1ccccc1Br [Compound K001FT011] | n.e. (did not significantly affect the catalytic activity of the intended PRMT (less than ±6% change or not significant p-value), are marked with n.e. (no effect))
18 | N/C(Cn1ccn2nc(-c3cccs3)cc2c1=O)=N\O [Compound K400JK015] | n.e. (did not significantly affect the catalytic activity of the intended PRMT (less than ±6% change or not significant p-value), are marked with n.e. (no effect))
19 | CNC(=O)Cn1cc(NC(=O)[C@@H]2CC[C@@H]2N)cn1 (racemic) [Compound K400JK012] | n.e. (did not significantly affect the catalytic activity of the intended PRMT (less than ±6% change or not significant p-value), are marked with n.e. (no effect))
20 | COc1cccc(NC(=O)COC(=O)c2cc3ccccc3[nH]2)c1 [Compound K001JS005] | n.e. (did not significantly affect the catalytic activity of the intended PRMT (less than ±6% change or not significant p-value), are marked with n.e. (no effect))
21 | Cn1ccnc1Cn1c(CCCN)nc2c1CCCC2 [Compound K001FT006] | n.e. (did not significantly affect the catalytic activity of the intended PRMT (less than ±6% change or not significant p-value), are marked with n.e. (no effect))
22 | CCN(CC)Cc1ccc(NS(=O)(=O)c2cc(C)cs2)cc1 [Compound K400JK016] | n.e. (did not significantly affect the catalytic activity of the intended PRMT (less than ±6% change or not significant p-value), are marked with n.e. (no effect))

same assay, conditions: Table S2; 100 µM compound; mean % difference vs solvent control (100%), n=3

Row | SMILES | Efficacy ±∆% (PRMT4)
23 | CCS(=O)(=O)Nc1ccc(NC(=O)C23CC(CN2)C3)cc1 [Compound K400JK004] | +8%
24 | CC1(C(=O)Nc2ccc3nc(CN)[nH]c3c2)CCC1 [Compound K400JK011] | -10%
25 | NCCNC[C@@H](O)COc1ccc(Cl)c(Cl)c1 (racemic) [Compound K001FT003] | -50%
